Reference: patent US20250312314A1, “METHOD AND COMPOSITION FOR IMPROVING OR MAINTAINING SKIN HEALTH OF MAMMALS” (NANJING NUTRABUILDING BIO-TECH CO., LTD., priority 2022, published 2025)

Assays:
[1] = tested on: Streptococcus; assay: Relative abundance of Streptococcus in skin of subjects after applying EGT base cream (16S rRNA); format: in vivo, human; conditions: once a day for 4 weeks
Protocol: (§1) Thirty healthy women aged 20-59 were randomly divided into three groups. The first group (0% EGT, n=10) was applied with pure base cream as the control group, the second group (5% EGT, n=10) was applied with base cream mixed with 5% ergothioneine, and the third group (10% EGT, n=10) was applied with base cream mixed with 10% ergothioneine. The applying was performed once a day for 4 weeks. Skin microorganisms were collected on the 0 th and 28 th days respectively, and the elasticity, moisture and desquamation of the skin of the subjects were measured on the 28 th day. Sterile water was used to wash Participants' faces and then applied on solid trypsin soy agar (TSA) medium. Individual colonies were collected and cultured in liquid trypsin soy broth (TSB) medium at 37° C. for 72 hours.
Each sample was centrifuged and the precipitate was collected, and the microbial DNA in the precipitate was extracted with a specific kit. The purity and quantity of DNA were measured by spectrophotometer. The 16S rRNA gene of bacteria was amplified with the following primers: forward, 5′-[…]-3′ (SEQ ID NO: 1); reverse, 5′-[…]-3′ (SEQ ID NO: 2). PCR was carried out in a 25 μL reactor, which contained 2 μL genomic DNA (10 ng/μL), 0.5 μL primers (10 μM), 12.5 μL 2×KAPA HiFi HotStart Ready Mix and 9.5 μL distilled water. […]

[2] = Elasticity, moisture and desquamation of skin of subjects after applying EGT base cream; format: in vivo, human; conditions: once a day for 4 weeks, day 28
Protocol: as §1

[3] = tested on: Malassezia; assay: Microbial colonization of reconstructed layered human epidermis, live count; format: cell-based; conditions: 24±2 h
Protocol: (§2) Primary adult human skin fibroblasts were embedded in fibrin matrix to produce dermal equivalent. The dermal equivalent was cultured to allow fibroblasts to reconstruct matrix. Primary neonatal human keratinocytes were applied on the surface of dermal equivalent and cultured in liquid for 48 hours. Culture was carried out on the air-liquid interface (ALI) until a layered epidermis was formed.
(§3) Staphylococcus epidermidis, Corynebacterium spp., Cutibacterium spp., Propionibacterium acnes and Malassezia were cultured in proper culture medium and incubation conditions (37±2° C., 5±1% (v/v) CO2, ≥95% RH). Inoculation buffer (GS25) was used to prepare inoculum containing about 1.1×10^6 cfu mL^−1 microbial flora of the above bacteria. 10 μL of the mixture was used for skin (layered epidermis) colonization, and each unit was colonized with about 10^4 cfu·cm^−2 of each bacterium. After that, the layered epidermis was incubated at 37±2° C., 5±1% (v/v) CO2, ≥95% RH for 3±1 hours.
(§4) α-Glucan Oligosaccharide (α-GO for short) is a famous prebiotic, which can protect skin health by maintaining the balance of microbial population and strengthening the microbial barrier of skin, so the experiment took it as a control. Control (α-GO, 1 μM) and EGT (0 μM, 0.1 μM, 1 μM, 10 μM, 100 μM, 1000 μM) were applied on the layered epidermis respectively, and then incubated for 24±2 hours at 37±2° C., 5±1% (v/v) CO2 and ≥95% RH. Then, the above five kinds of microorganisms were counted respectively to evaluate the inhibitory effect of α-GO and EGT on microbial growth: 8 mm live tissue slices were taken from layered epidermis, and the number of live bacteria (cfu·cm^−2) was evaluated by incubation on appropriate selective solid medium. The choice of solid medium is based on the characteristics of microorganisms themselves.

[4] = tested on: Propionibacterium acnes; assay: as above; format: cell-based; conditions: 24±2 h
Protocol: as §2, §3, §4

[5] = tested on: Corynebacterium spp.; assay: as above; format: cell-based; conditions: 24±2 h
Protocol: as §2, §3, §4

[6] = tested on: Staphylococcus epidermidis; assay: as above; format: cell-based; conditions: 24±2 h
Protocol: as §2, §3, §4

[7] = tested on: Cutibacterium spp.; assay: as above; format: cell-based; conditions: 24±2 h
Protocol: as §2, §3, §4

[8] = EGT 0.1-1000 μM, effect more significant with increasing concentration

Compound: C[N+](C)(C)[C@@H](Cc1c[nH]c(=S)[nH]1)C(=O)[O-] [EGT, Ergothioneine]
- effect on relative abundance of Streptococcus, 10% EGT group compared with 5% EGT ([1]; 10% EGT base cream): more obvious
- relative abundance (RA) of Streptococcus in skin vs pure base cream group ([1]; EGT base cream (5% and 10%), healthy women): more abundant
- increase of skin elasticity compared with 0% EGT group ([2]; 10% EGT base cream): about 20%
- increase of skin moisture compared with 0% EGT group ([2]; 10% EGT base cream): about 45%
- reduction of desquamation compared with 0% EGT group ([2]; 10% EGT base cream): about 30%
- skin desquamation ([2]; EGT base cream (5% and 10%)): avoid the problem of skin desquamation
- skin elasticity ([2]; EGT base cream (5% and 10%)): significantly increase
- skin moisture ([2]; EGT base cream (5% and 10%)): significantly increase
- colonization of Malassezia in the layered epidermis (live count) [3, 8]: obviously inhibited
- inhibitory effect on Malassezia compared with α-GO ([3]; same concentration (1 μM)): better inhibitory effect
- colonization of Propionibacterium acnes in the layered epidermis (live bacteria count) [4, 8]: obviously inhibited
- inhibitory effect on Propionibacterium acnes compared with α-GO ([4]; same concentration (1 μM)): better inhibitory effect
- colonization of Corynebacterium spp. in the layered epidermis (live bacteria count) [5, 8]: obviously inhibited
- inhibitory effect on Corynebacterium spp. compared with α-GO ([5]; same concentration (1 μM)): better inhibitory effect
- colonization of Staphylococcus epidermidis in the layered epidermis (live bacteria count) [6, 8]: obviously inhibited
- inhibitory effect on Staphylococcus epidermidis compared with α-GO ([6]; same concentration (1 μM)): better inhibitory effect
- colonization of Cutibacterium spp. in the layered epidermis (live bacteria count) [7, 8]: obviously inhibited
- inhibitory effect on Cutibacterium spp. compared with α-GO ([7]; same concentration (1 μM)): better inhibitory effect
